Experimental data reported in patent US12194078B2, “Methods and compositions related to combined treatment with anti-inflammatories and synthetic nanocarriers comprising an immunosuppressant” (Cartesian Therapeutics, Inc., priority 2017, dated 2025).
Where two headings read alike, the source gives them in different places.

What was measured:
[1] = system: patients with hyperuricemia and gout; assay: Phase 3 febuxostat trial: gout flares, first 8 weeks; format: in vivo, human; details: first 8 weeks with gout flare prophylaxis
Text: (§1) Further comparisons can be made with the primary branded oral uric acid lowering medication, febuxostat. In a phase 3, randomized, double-blind, multi-center trial, the safety and efficacy of febuxostat was studied over 52 weeks (Michael A. Becker, M. D., H. Ralph Schumacher, Jr., M. D., Robert L. Wortmann, M. D., Patricia A. MacDonald, B. S. N., N. P., Denise Eustace, B. A., William A. Palo, M. S., Janet Streit, M. S., and Nancy Joseph-Ridge, M. D. Febuxostat Compared with Allopurinol in Patients with Hyperuricemia and Gout. N Engl J Med 2005; 353:2450-2461Dec. 8, 2005). The comparison period for this analysis included only the first 8 weeks of that study, when gout flare prophylaxis (naproxen or colchicine) was administered. Data points were identified using a graph digitizer for FIG. 1 of the above reference. At a dose of 80 mg/day, 55 out of 255 subjects required treatment for at least one gout flare. This would be the equivalent to a flare frequency of at least 0.22 flares per patient month, and possibly more. At a dose of 120 mg/day, 90 out of 250 subjects required treatment for at least one gout flare, equating to at least a flare frequency of 0.36 flares per patient month, and possibly more.

[2] = system: serum uric acid (sUA); assay: Phase 3 febuxostat trial: AUC of mean sUA levels over time; format: in vivo, human; details: data points from graph digitizer
Text: as §1, with “The comparison period for this analysis included only the first 8 weeks of that study, when gout flare prophylaxis (naproxen or colchicine) was administered.” left out

[3] = Combination assessment of flare frequency and AUC of mean sUA; format: in vivo, human
Protocol: Anti-drug antibodies (ADAs) can be a complication with treatment with soluble therapeutic proteins, such as the possibility of reduced efficacy. In addition, with treatment of subjects with conditions associate with gout, gout flares can increase when efficacy is increased. […] Specifically, a combination assessment of glare frequency as well as the area under the curve of mean sUA (serum uric acid) levels over time was performed. The finding of both improved efficacy and reduced gout flares was surprising with the SEL-212 study drug and anti-inflammatory treatment.
The tabulated data outlining the comparison in flare frequency between the different medications alongside their efficacy in reducing serum uric acid (sUA) is compiled in Table 4.
In addition, a combination assessment of glare frequency as well as the area under the cruve of mean sUA levels over time show both improved efficacy and reduced gout flares. […] Here, with the SEL-212 study drug and anti-inflammatory treatment, both efficacy and gout flare reduction can be achieved.

[4] = system: patients with hyperuricemia and gout; details: first 8 weeks, cited from earlier work
[5] = system: serum uric acid (sUA); assay: Phase 3 pegloticase trials: AUC of mean sUA levels over time; format: in vivo, human; set-up: AUC of mean sUA levels, responders / AUC of mean sUA levels, non-responders: unit not given beside the values; details: for Area Under Curve of Mean sUA Levels Over Time Up to 20 Weeks: combined weighted average for responders and non-responders, digitized, extrapolated to 20 weeks
Protocol: For comparison, the Phase 3 pegloticase trials (John S. Sundy, MD, PhD; Herbert S. B. Baraf, MD; Robert A. Yood, MD; et al. Efficacy and Tolerability of Pegloticase for the Treatment of Chronic Gout in Patients Refractory to Conventional Treatment: Two Randomized Controlled Trials. JAMA. 2011; 306(7):711-720) were examined to determine the number of flares per month and the area under the curve (AUC) of mean serum uric acid (sUA) levels over time (up to 20 weeks). Subjects were given 0.6 mg of colchicine once or twice daily (or a nonsteroidal anti-inflammatory drug) one week before first infusion, which continued throughout the study. The study also included prophylaxis against infusion related reactions (IRs) before each infusion. The subjects were administered oral fexofenadine (60 mg) the evening before and again immediately before, the infusion, as well as acetaminophen 1000 mg) and IV hydrocortisone (200 mg) immediately before the infusion. Data points were obtained from Table 2, which presents the biweekly/monthly flare per patient month. Data points were also identified using a graph digitizer for FIG. 2 of the aforementioned reference. The data was extrapolated to 20 weeks. The AUC of mean sUA levels over time (up to 20 weeks) and the flares per patient month were calculated using the combined weighted average for responders and non-responders for sUA AUC. […] Similar calculations were performed to obtain the monthly data.

[6] = system: uric acid; details: cited from earlier work
[7] = system: ADAs; details: all KRYSTEXXA-treated subjects; cited from earlier work
[8] = system: patients with chronic gout refractory to conventional treatment; details: cited from earlier work
[9] = monthly dosing, four weeks after first dose

Cc1nc(-c2ccc(OCC(C)C)c(C#N)c2)sc1C(=O)O [Febuxostat, febuxostat]
Flares per patient month ([1]; Febuxostat 80 mg/day): 0.22 flares per patient month | Flares per patient month ([1]; Febuxostat 80 mg/day, listed as febuxostat): at least 0.22 flares per patient month | Flares per patient month ([1]; Febuxostat 120 mg/day): 0.36 flares per patient month | Flares per patient month ([1]; Febuxostat 120 mg/day, listed as febuxostat): ≥ 0.36 flares per patient month | Area Under Curve of Mean sUA Levels Over Time Up to 20 Weeks ([2]; Febuxostat 80 mg/day): 108.3 | Area Under Curve of Mean sUA Levels Over Time Up to 20 Weeks ([2]; Febuxostat 120 mg/day): 93.4 | Flares per patient month * AUC ([3]; Febuxostat 80 mg/day): 23.83 | Flares per patient month * AUC ([3]; Febuxostat 120 mg/day): 33.62 | subjects that required treatment for at least one gout flare ([4]; Febuxostat 80 mg/day): 55 out of 255 | subjects that required treatment for at least one gout flare ([4]; Febuxostat 120 mg/day): 90 out of 250

Pegloticase
AUC of mean sUA levels, non-responders ([5]; Pegloticase biweekly group, non-responders, cut to 20 weeks): 102.0 | AUC of mean sUA levels, responders ([5]; Pegloticase biweekly group, responders): 12.3 | Area Under Curve of Mean sUA Levels Over Time Up to 20 Weeks ([5]; Pegloticase biweekly): 64.0 | Area Under Curve of Mean sUA Levels Over Time Up to 20 Weeks ([5]; Pegloticase monthly): 94.4 | Flares per patient month * AUC ([3]; Pegloticase biweekly): 33.28 | Flares per patient month * AUC ([3]; Pegloticase monthly): 66.05 | non-responders, share of subjects ([6]; monthly dosing cohorts): 65% | subjects classified as responders (uric acid below 6 mg/dl for 80% of the time at months three and six) ([6]; monthly dosing cohorts): 35% | mean uric acid levels at four weeks, non-responders [6, 9]: above 6 mg/dl | mean uric acid levels at four weeks, responders [6, 9]: above 4 mg/dl | treated subjects that developed ADAs [7]: 89% | Flares per patient month ([8]; Pegloticase biweekly): 0.52 flares per patient month | Flares per patient month ([8]; Pegloticase monthly): 0.70 flares per patient month
